Source: the NIST ThermoML archive (doi:10.1021/je9004992)
Numbers after ± are expanded uncertainties.

Assay: molar heat capacity at constant pressure
Details: Liquid, Small sample (50 mg) DSC

CCn1cc[n+](C)c1.F[B-](F)(F)F [1-ethyl-3-methylimidazolium tetrafluoroborate]
molar heat capacity at constant pressure [J/K/mol]
Details	283.15 K	288.15 K	293.15 K	298.15 K	303.15 K	308.15 K	313.15 K	318.15 K	323.15 K
100 kPa	300.19 ± 4.7	301.67 ± 4.7	303.23 ± 4.7	304.87 ± 4.7	306.58 ± 4.8	308.36 ± 4.8	310.23 ± 4.8	312.17 ± 4.8	314.18 ± 4.9
2000 kPa	300.22 ± 4.7	301.7 ± 4.7	303.26 ± 4.7	304.9 ± 4.7	306.61 ± 4.8	308.4 ± 4.8	310.26 ± 4.8	312.2 ± 4.8	314.21 ± 4.9
4000 kPa	300.24 ± 4.7	301.73 ± 4.7	303.29 ± 4.7	304.93 ± 4.7	306.64 ± 4.8	308.43 ± 4.8	310.29 ± 4.8	312.23 ± 4.8	314.24 ± 4.9
6000 kPa	300.27 ± 4.7	301.76 ± 4.7	303.32 ± 4.7	304.96 ± 4.7	306.67 ± 4.8	308.46 ± 4.8	310.32 ± 4.8	312.26 ± 4.8	314.27 ± 4.9
8000 kPa	300.3 ± 4.7	301.79 ± 4.7	303.35 ± 4.7	304.99 ± 4.7	306.7 ± 4.8	308.49 ± 4.8	310.35 ± 4.8	312.29 ± 4.8	314.3 ± 4.9
10000 kPa	300.33 ± 4.7	301.82 ± 4.7	303.38 ± 4.7	305.02 ± 4.7	306.73 ± 4.8	308.52 ± 4.8	310.38 ± 4.8	312.32 ± 4.8	314.33 ± 4.9
12000 kPa	300.35 ± 4.7	301.85 ± 4.7	303.41 ± 4.7	305.05 ± 4.7	306.77 ± 4.8	308.55 ± 4.8	310.42 ± 4.8	312.35 ± 4.8	314.36 ± 4.9
14000 kPa	300.38 ± 4.7	301.87 ± 4.7	303.44 ± 4.7	305.08 ± 4.7	306.8 ± 4.8	308.59 ± 4.8	310.45 ± 4.8	312.38 ± 4.8	314.39 ± 4.9
20000 kPa	300.46 ± 4.7	301.96 ± 4.7	303.53 ± 4.7	305.18 ± 4.7	306.89 ± 4.8	308.68 ± 4.8	310.54 ± 4.8	312.47 ± 4.8	314.48 ± 4.9
30000 kPa	300.6 ± 4.7	302.1 ± 4.7	303.68 ± 4.7	305.33 ± 4.7	307.05 ± 4.8	308.84 ± 4.8	310.7 ± 4.8	312.63 ± 4.8	314.63 ± 4.9
40000 kPa	300.73 ± 4.7	302.25 ± 4.7	303.83 ± 4.7	305.49 ± 4.7	307.21 ± 4.8	309 ± 4.8	310.86 ± 4.8	312.79 ± 4.8	314.78 ± 4.9
50000 kPa	300.87 ± 4.7	302.39 ± 4.7	303.98 ± 4.7	305.64 ± 4.7	307.37 ± 4.8	309.16 ± 4.8	311.02 ± 4.8	312.94 ± 4.8	314.93 ± 4.9
60000 kPa	301 ± 4.7	302.54 ± 4.7	304.13 ± 4.7	305.8 ± 4.7	307.52 ± 4.8	309.32 ± 4.8	311.17 ± 4.8	313.1 ± 4.8	315.08 ± 4.9
